Tests used:
Arginase-1 [1] = molecular target: T1, Arginase-1 (Bos taurus, UniProt Q2KJ64); test: Inhibition of recombinant bovine liver ARGI using L-arginine as substrate incubated for 60 mins by spectroscopic analysis
T1 sequence (Q2KJ64 whole entry): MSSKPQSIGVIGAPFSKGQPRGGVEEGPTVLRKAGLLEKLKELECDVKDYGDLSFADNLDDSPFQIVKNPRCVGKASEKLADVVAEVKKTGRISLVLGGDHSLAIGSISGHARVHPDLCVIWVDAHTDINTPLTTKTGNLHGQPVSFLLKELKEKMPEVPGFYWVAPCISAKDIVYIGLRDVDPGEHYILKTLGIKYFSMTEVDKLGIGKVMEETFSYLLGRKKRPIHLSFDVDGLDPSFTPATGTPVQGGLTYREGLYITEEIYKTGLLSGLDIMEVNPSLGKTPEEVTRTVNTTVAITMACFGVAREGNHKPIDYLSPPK

Arginase-1 [2] = molecular target: T1, Arginase-1; test: Mixed type inhibition of recombinant bovine liver ARGI using L-arginine as substrate incubated for 60 mins by Dixon plot analysis
Arginase-1 [3] = molecular target: T1, Arginase-1; test: Mixed type inhibition of recombinant bovine liver ARGI using L-arginine as substrate incubated for 60 mins by Lineweaver-Burk plot analysis
Arginase-1 [4] = molecular target: T1, Arginase-1; test: Mixed type inhibition of recombinant bovine liver ARGI using L-arginine as substrate incubated for 60 mins by Cornish-Bowden plot analysis
Arginase-1 [5] = molecular target: T2, Arginase-1 (Homo sapiens, UniProt P05089); test: Inhibition of recombinant human liver ARGI using L-arginine as substrate incubated for 60 mins by spectroscopic analysis
T2 sequence (P05089 whole entry): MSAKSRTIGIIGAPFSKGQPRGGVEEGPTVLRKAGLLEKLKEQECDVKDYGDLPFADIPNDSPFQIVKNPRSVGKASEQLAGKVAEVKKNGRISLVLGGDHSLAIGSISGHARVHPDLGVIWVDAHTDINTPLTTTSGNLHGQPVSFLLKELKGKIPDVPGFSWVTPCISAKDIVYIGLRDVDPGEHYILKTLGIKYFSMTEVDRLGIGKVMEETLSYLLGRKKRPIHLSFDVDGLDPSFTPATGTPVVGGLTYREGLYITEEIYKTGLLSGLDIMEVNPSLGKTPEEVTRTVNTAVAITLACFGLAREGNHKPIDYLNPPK

Arginase-1 [6] = molecular target: T2, Arginase-1; test: Inhibition of recombinant human ARG1 expressed in CHO-K1 cells assessed as reduction in urea level incubated for 24 hrs by colorimetric assay; assay type: cell-based

IC50 (Arginase-1 [1]) | Compound | other results
343 µM | NCCCNCc1ccc(O)c(O)c1 | 
360 µM | Oc1ccc(O)c(O)c1 | 
164 µM | NCc1ccc(O)c(O)c1 | 
185 µM | COc1cccc(NCc2ccc(O)c(O)c2)c1 | 
108 µM | O=C(O)c1cc(O)cc(NCc2ccc(O)c(O)c2)c1 | 
128 µM | NCCc1ccc(O)c(O)c1 [DOPAMINE] | 
76 µM | Oc1ccc(CNc2ccc(O)c(O)c2)cc1O | Ki (Arginase-1 [2]): 82 µM; Ki (Arginase-1 [3]): 82 µM; Ki (Arginase-1 [4]): 82 µM; IC50 (Arginase-1 [5]): 89 µM; IC50 (Arginase-1 [6]): 794 µM
274 µM | Oc1cccc(Br)c1O | 
389 µM | COc1ccc(CNCc2ccc(O)c(O)c2)cc1 | 
478 µM | Nc1ccc(O)c(O)c1 | 
285 µM | COC(=O)c1ccc(O)c(O)c1 [METHYL PROTOCATECHUATE] | 
362 µM | CCOC(=O)C(NCc1ccc(O)c(O)c1)C(=O)OCC | 
154 µM | COc1ccc(NCc2ccc(O)c(O)c2)cc1 | 
106 µM | OCc1ccc(O)c(O)c1 | 
145 µM | Oc1ccc(CNCc2ccccc2)cc1O | 
226 µM | Oc1ccc(CNCc2ccc3c(c2)OCO3)cc1O | 
131 µM | O=C(O)/C=C/c1ccc(O)c(O)c1 [CAFFEIC ACID] | 
 | N[C@@H](CCCCB(O)O)C(=O)O | IC50 (Arginase-1 [6]): 16.8 µM
300 µM | COc1cccc(CNCc2ccc(O)c(O)c2)c1 | 
83 µM | Oc1cccc(NCc2ccc(O)c(O)c2)c1 | 
164 µM | Oc1ccc(CNc2ccccc2)cc1O | 
47 µM | Oc1cc(O)cc(/C=C/c2ccc(O)c(O)c2)c1 [PICEATANNOL] | Ki (Arginase-1 [2]): 136 µM; Ki (Arginase-1 [3]): 136 µM; Ki (Arginase-1 [4]): 136 µM; IC50 (Arginase-1 [5]): 69 µM; IC50 (Arginase-1 [6]): 1180 µM
2.7 µM | N=C(NO)NCC[C@H](N)C(=O)O [NOR-NOHA] | 
277 µM | Oc1ccc(CNCc2cc(Cl)cc(Cl)c2)cc1O | 
467 µM | Oc1ccc(CNCCN2CCOCC2)cc1O | 
329 µM | Oc1ccc(CNCc2cccc(Cl)c2)cc1O | 
141 µM | Oc1cc(O)cc(NCc2ccc(O)c(O)c2)c1 | 
187 µM | O=C(O)c1cc(NCc2ccc(O)c(O)c2)ccc1O | 
318 µM | Oc1ccc(CNCCc2c[nH]cn2)cc1O | 
238 µM | Oc1ccc(NCc2ccc(O)c(O)c2)cc1 | 

Compound | IC50 (Arginase-1 [1]) | other results
Oc1ccc(CNCCc2ccccc2)cc1O | 367 µM | 
Oc1ccccc1O [CATECHOL] | 123 µM | 
